According to publication PMC11487561 (ACS Chemical Neuroscience, 2024):

Assays:
human M2 = human M2 (Homo sapiens, UniProt P08172); test: Calcium mobilization assay, muscarinic selectivity; assay type: cell-based
Glutamate, NMDA, Glycine = Glutamate, NMDA, Glycine (Rattus norvegicus, UniProt P35439); test: Lead Profiling Screen – Eurofins Panlabs; assay type: binding; details: read-out: % inh at 10 μM
Adenosine A3 = biological target: T1, Adenosine A3 (Homo sapiens, UniProt P0DMS8); test: Lead Profiling Screen – Eurofins Panlabs; assay type: binding; details: read-out: % inh at 10 μM
T1 construct: Eurofins Panlabs
T1 sequence (P0DMS8 whole entry): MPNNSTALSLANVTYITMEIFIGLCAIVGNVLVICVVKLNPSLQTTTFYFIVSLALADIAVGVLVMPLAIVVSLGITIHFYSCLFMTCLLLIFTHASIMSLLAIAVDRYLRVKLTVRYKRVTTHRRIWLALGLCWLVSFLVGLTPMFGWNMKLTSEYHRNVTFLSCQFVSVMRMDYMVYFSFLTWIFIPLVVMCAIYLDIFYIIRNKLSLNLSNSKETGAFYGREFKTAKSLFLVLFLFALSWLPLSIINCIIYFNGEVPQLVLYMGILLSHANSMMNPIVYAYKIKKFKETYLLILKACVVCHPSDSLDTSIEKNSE

Dopamine D2S = biological target: T2, Dopamine D2S (Homo sapiens, UniProt P14416); test: Lead Profiling Screen – Eurofins Panlabs; assay type: binding; details: read-out: % inh at 10 μM
T2 construct: Eurofins Panlabs (contract screen)
T2 sequence (P14416 1-414 isoform P14416-2): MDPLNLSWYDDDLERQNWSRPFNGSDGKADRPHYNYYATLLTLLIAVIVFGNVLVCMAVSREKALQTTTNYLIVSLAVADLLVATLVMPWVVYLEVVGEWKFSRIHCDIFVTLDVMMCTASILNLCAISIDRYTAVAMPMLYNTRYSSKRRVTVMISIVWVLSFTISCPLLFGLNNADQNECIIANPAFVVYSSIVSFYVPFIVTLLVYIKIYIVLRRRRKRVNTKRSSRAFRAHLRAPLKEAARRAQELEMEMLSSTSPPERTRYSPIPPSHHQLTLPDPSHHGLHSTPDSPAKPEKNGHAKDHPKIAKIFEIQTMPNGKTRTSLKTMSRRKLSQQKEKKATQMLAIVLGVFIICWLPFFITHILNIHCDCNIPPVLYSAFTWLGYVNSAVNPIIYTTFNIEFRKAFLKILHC

Adrenergic α1A = biological target: T3, Adrenergic α1A (Rattus norvegicus, UniProt P43140); test: Lead Profiling Screen – Eurofins Panlabs; assay type: binding; details: read-out: % inh at 10 μM
T3 construct: Eurofins Panlabs
T3 sequence (P43140 whole entry): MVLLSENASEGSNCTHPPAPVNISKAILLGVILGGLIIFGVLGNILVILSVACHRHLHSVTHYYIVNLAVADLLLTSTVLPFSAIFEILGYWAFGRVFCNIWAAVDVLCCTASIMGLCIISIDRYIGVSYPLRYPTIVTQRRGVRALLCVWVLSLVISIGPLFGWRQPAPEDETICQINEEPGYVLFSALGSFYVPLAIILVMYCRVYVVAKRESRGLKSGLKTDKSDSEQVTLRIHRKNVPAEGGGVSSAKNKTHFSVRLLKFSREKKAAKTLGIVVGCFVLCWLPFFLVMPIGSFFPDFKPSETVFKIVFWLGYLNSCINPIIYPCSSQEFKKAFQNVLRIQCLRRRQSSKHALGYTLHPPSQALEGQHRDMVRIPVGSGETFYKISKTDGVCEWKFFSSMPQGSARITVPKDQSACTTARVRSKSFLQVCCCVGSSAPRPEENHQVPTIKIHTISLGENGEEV

[1] = MDCK-MDR1 permeability assay; assay type: in vitro ADME; details: dog
Adrenergic β1 = biological target: T4, Adrenergic β1 (Homo sapiens, UniProt P08588); test: Lead Profiling Screen – Eurofins Panlabs; assay type: binding; details: read-out: % inh at 10 μM
T4 construct: Eurofins Panlabs (contract screen)
T4 sequence (P08588 whole entry): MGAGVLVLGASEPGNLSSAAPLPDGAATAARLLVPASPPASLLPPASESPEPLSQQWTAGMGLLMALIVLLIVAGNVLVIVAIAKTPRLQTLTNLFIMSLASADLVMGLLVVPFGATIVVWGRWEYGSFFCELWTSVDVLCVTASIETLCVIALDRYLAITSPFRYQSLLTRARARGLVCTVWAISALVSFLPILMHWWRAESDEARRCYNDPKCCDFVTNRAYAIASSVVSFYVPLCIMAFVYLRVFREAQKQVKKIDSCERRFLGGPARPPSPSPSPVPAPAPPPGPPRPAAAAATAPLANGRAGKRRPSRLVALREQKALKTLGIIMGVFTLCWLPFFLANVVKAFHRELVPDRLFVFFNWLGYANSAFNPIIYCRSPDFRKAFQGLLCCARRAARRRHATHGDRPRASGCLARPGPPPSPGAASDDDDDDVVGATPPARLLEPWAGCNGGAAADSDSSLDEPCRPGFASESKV

cardiac ion channels = test: Charles River ChanTest Cardiac Channel Panel (patch clamp), whole panel; assay type: cell-based, human; details: 10 μM
Method: page 17: Table S3. Cardiac Ion Channel Panel - Charles River Laboratories for VU6016235 Ion Channel Concentration Mean % Standard Standard n (μM) Inhibition Deviation Error hCav1.2 10 13.9 8.9 5.1 3 hCav3.2 10 6.7 2.7 1.4 4 hHCN2 10 2.6 1.9 1.1 3 hERG 10 10.9 0.9 0.4 4 hKv1.5 10 1.3 1.8 0.9 4 […] 10 4.1 5.6 2.8 4 hKv1.3 10 9 2.9 1.7 3 hNav1.5 (Tonic) 10 5.8 0.6 0.4 3 […] (Phasic) The in vitro effects of VU6016235 were evaluated at room temperature using the QPatch HT® (Sophion Bioscience A/S, Denmark), an automatic parallel patch clamp system. VU6016235 was evaluated at a concentration of 10 μM and tested in at least 3 cells (n ≥ 3). […] Next, rats were injected subcutaneously with vehicle or a dose of 0.75 mg/kg amphetamine and then monitored for an additional 60 min. Changes in locomotor activity were recorded for a total of 120 min. Locomotor data were expressed as the number of photobeam breaks/5 min intervals across the 120-min test session or as the total ambulation, calculated as sum of photobeam beam breaks from the time of amphetamine administration (60 min) until the end of the study (120 min). Time course data were analyzed by two-way ANOVA with main effects of treatment and time; changes in total ambulation were analyzed by one-way ANOVA followed by Dunnett's post hoc test (GraphPad Prism 7 [GraphPad Software, San Diego, CA]). […]

Thyroid Hormone = test: Lead Profiling Screen – Eurofins Panlabs; assay type: binding, rat

Sequence of human M2 (P08172 whole entry): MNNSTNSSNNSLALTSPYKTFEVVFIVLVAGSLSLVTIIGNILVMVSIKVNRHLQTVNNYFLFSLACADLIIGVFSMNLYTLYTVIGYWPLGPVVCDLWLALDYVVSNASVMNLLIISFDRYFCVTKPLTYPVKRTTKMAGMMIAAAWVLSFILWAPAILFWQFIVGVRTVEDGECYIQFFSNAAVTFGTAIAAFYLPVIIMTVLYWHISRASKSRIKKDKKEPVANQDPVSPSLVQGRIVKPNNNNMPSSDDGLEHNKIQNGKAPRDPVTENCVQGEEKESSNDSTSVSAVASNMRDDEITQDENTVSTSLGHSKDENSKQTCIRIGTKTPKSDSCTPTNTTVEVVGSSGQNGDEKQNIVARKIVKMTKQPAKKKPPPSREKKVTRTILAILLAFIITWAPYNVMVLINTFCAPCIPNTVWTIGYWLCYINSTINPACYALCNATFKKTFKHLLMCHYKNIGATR
Sequence of Glutamate, NMDA, Glycine (P35439 394-800 limits assumed): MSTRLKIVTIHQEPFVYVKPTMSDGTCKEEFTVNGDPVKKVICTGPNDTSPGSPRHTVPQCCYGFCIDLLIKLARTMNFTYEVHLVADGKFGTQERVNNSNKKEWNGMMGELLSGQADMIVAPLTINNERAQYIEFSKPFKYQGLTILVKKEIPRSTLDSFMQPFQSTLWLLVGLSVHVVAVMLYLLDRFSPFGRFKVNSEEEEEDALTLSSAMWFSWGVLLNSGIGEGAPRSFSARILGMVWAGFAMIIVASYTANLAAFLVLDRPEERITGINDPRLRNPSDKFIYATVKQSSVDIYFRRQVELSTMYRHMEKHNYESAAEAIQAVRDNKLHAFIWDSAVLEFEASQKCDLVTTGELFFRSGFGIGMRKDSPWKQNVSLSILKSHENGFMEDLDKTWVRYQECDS

Cc1nc(C)c2c(n1)sc1c(NCc3ccc(C(C)(C)O)cc3)nccc12 [22g]
EC50 (human M2): 6.2 µM
human M2 %Ach Max (human M2): [46] %Ach Max
inhibition at 10 µM (Glutamate, NMDA, Glycine): -9%
inhibition at 10 µM (Adenosine A3): 22%
inhibition at 10 µM (Dopamine D2S): -4%
inhibition at 10 µM (Adrenergic α1A): 3%
Papp A→B [1]: 47 ×10⁻⁶ cm/s
Papp B→A [1]: 68 ×10⁻⁶ cm/s
inhibition at 10 µM (Adrenergic β1): 3%
inhibition, all ion channels (cardiac ion channels): ≤ 14%
% inh at 10 μM (Thyroid Hormone): 1%
